The values that follow come from publication PMC8113725, “Structure–activity relationship of ipglycermide binding to phosphoglycerate mutases” (The Journal of Biological Chemistry, 2021).

Where two headings read alike, the source gives them in different places. Bridge positions count the residues as written; N and C are the ends. Square brackets hold non-standard residues; d marks the D form. Ends that are not written are not given here. Peptide text beside a SMILES is read from it. * marks the point of attachment. Nva = CCC[C@H](N)C(=O)O; NHOH = ON*

One data set deals with D. immitis iPGM (Dirofilaria immitis, UniProt F4ZE01). The data set can be described thus: biochemical.
The target of data set [1] is T1, C. elegans iPGM (Caenorhabditis elegans, UniProt G5EFZ1). The data set can be described thus: PGM enzyme assay (enolase–pyruvate kinase coupled, Kinase-Glo Plus end point) and IC50 determination. Conditions: IC50, metal-ion–coordinating sequence alone; iPGM ortholog not given. The class given is biochemical. On the technique in general: In Kinase-Glo more light means more ATP remaining.

The target in data set [2] is T1, C. elegans iPGM. Briefly: SPR binding kinetics and saturation binding, biotinylated iPGM on Biotin CAPture chip (Biacore S200). On the technique in general: Surface plasmon resonance follows binding to a sensor surface in real time, without labels.
Data set [3] concerns the target T2, E. coli iPGM (Escherichia coli, UniProt P37689). Briefly: biochemical. Particulars: […].
The target in a further data set is T3, B. malayi iPGM (Brugia malayi, UniProt Q4VWF8).
T3 sequence (Q4VWF8 1-515): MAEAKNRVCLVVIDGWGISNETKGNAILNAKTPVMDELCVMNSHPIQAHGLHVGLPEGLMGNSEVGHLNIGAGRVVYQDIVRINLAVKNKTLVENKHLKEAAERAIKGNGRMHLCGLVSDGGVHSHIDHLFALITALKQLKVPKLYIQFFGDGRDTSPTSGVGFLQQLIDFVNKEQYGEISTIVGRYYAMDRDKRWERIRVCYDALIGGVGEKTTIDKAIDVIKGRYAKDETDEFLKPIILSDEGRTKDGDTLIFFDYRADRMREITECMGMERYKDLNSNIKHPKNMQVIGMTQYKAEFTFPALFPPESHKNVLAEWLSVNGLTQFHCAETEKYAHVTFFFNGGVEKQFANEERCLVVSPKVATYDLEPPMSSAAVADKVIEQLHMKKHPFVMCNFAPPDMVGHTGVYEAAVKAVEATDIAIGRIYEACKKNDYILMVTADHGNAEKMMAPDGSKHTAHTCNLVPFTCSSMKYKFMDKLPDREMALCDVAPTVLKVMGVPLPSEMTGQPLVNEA
The data set can be described thus: biochemical. Type of data set: binding. Particulars: for Kd: Supplementary Table 5, SPR, B.m. iPGM, unit inferred.

Data set [4] concerns the target T2, E. coli iPGM. The data set can be described thus: SPR binding kinetics and saturation binding, biotinylated iPGM on Biotin CAPture chip (Biacore S200). Particulars: for koff / kon: LoQ = limit of quantitation.
The target in another data set is T4, Ce-2 (synthetic construct, thioether N-8).
T4 chain: {CH2CO}-[dY]DYPGDYCYLYGTC
Briefly: SPR.

Another data set has as its target T5, Ce-2 Thr13Ser (synthetic construct, thioether N-8).
T5 chain: {CH2CO}-[dY]DYPGDYCYLYGSC
The data set can be described thus: SPR.

The next data set concerns the target T6, Ce-1 NHOH (synthetic construct, thioether N-8; SMILES …).
T6 chain: {CH2CO}-[dY]DYPGDHCYLYGT-{NHOH}
The data set can be described thus: SPR.

The mark [5] stands for this setting: SPR, 25 °C, global fit to 1:1 binding model.
The mark [6] stands for this setting: Supplementary Table 5, SPR, E.c. iPGM.
Setting [7] is: Supplementary Table 5, SPR, E.c. iPGM, unit inferred.

Consider `CC(=O)N[C@@H](Cc1ccc(O)cc1)C(=O)NCC(=O)N[C@H](C(=O)N[C@@H](CS)C(N)=O)[C@@H](C)O` [Ac-YGTCNH2, Ac-YGTC-CONH2] (Ac-YGTC-NH2), for which the values for the IC50 against D. immitis iPGM (Di iPGM Ave IC50 (M)) and on C. elegans iPGM [1] were above 0.001 M and above 500 µM, respectively.
As for `CC(C)C[C@H](NC(=O)[C@H](Cc1ccc(O)cc1)NC(=O)[C@@H]1CSCC(=O)N[C@H](Cc2ccc(O)cc2)C(=O)N[C@@H](CC(=O)O)C(=O)N[C@@H](Cc2ccc(O)cc2)C(=O)N2CCC[C@H]2C(=O)NCC(=O)N[C@@H](CC(=O)O)C(=O)N[C@@H](Cc2c[nH]cn2)C(=O)N1)C(=O)N[C@@H](Cc1ccc(O)cc1)C(=O)NCC(=O)N[C@H](C(=O)NO)[C@@H](C)O` [Ce-1 NHOH], the IC50 against D. immitis iPGM (Di iPGM Ave IC50 (M)) came out at 2.92e-09 M; against E. coli iPGM [3], 8.97 µM. The Kd on C. elegans iPGM [2] is 109 pM; at B. malayi iPGM it was 11500 pM; at E. coli iPGM [4] (SPR, Req hyperbolic fit where steady state reached, else koff/kon) it was 5 µM; on E. coli iPGM [4] (setting [7]), 5.14 µM. Also, the koff at C. elegans iPGM [2] worked out at 0.000171 s⁻¹; at C. elegans iPGM [2] (setting [5]), 7.8e-05 s⁻¹; at B. malayi iPGM it was 0.00148 s⁻¹; on B. malayi iPGM (setting [5]) it was 0.0015 s⁻¹; on E. coli iPGM [4] (setting [6]), 0.914 s⁻¹. Besides, the kon on C. elegans iPGM [2] came to 1.86e+06 M⁻¹ s⁻¹; on C. elegans iPGM [2] (setting [5]), 1.9e+06 M⁻¹ s⁻¹; at B. malayi iPGM, 203000 M⁻¹ s⁻¹; on B. malayi iPGM (setting [5]), 200000 M⁻¹ s⁻¹; on E. coli iPGM [4] (setting [6]) it was 181000 M⁻¹ s⁻¹. The molecule further came in with a t½ on E. coli iPGM [4] (SPR, dissociation half-life) of at most 1 s.
`CCC[C@@H]1NC(=O)[C@@H](Cc2ccc(O)cc2)NC(=O)CSC[C@@H](C(=O)N[C@@H](Cc2ccc(O)cc2)C(=O)N[C@@H](CC(C)C)C(=O)N[C@@H](Cc2ccc(O)cc2)C(=O)NCC(=O)N[C@H](C(=O)N[C@@H](CS)C(N)=O)[C@@H](C)O)NC(=O)[C@H](Cc2ccc(O)cc2)NC(=O)[C@H](CC(=O)O)NC(=O)CNC(=O)[C@@H]2CCCN2C(=O)[C@H](Cc2ccc(O)cc2)NC1=O` [Ce-2 D2Nva] ({CH2CO}-[dY][Nva]YPGDYCYLYGTC-NH2; thioether N-8): the IC50 against D. immitis iPGM (Di iPGM Ave IC50 (M)) was 1.51e-09 M; at D. immitis iPGM (IC50 (M)), 1.46e-09 M; against E. coli iPGM [3], 8.73 µM. Also, the Kd at C. elegans iPGM [2] stood at 25.7 pM; on B. malayi iPGM, 378 pM; on E. coli iPGM [4] (setting [7]) it was 0.0471 µM. Besides, the koff at C. elegans iPGM [2] was 4.98e-05 s⁻¹; on B. malayi iPGM it was 0.000143 s⁻¹; on E. coli iPGM [4] (setting [6]) it was 0.00195 s⁻¹. Further, the values for the kon at C. elegans iPGM [2], on B. malayi iPGM and at E. coli iPGM [4] (setting [6]) were 1.94e+06 M⁻¹ s⁻¹, 376000 M⁻¹ s⁻¹ and 132000 M⁻¹ s⁻¹, respectively.
For `CC(C)C[C@H](NC(=O)[C@H](Cc1ccc(O)cc1)NC(=O)[C@@H]1CSCC(=O)N[C@H](Cc2ccc(O)cc2)C(=O)N[C@@H](CC(=O)O)C(=O)N[C@@H](Cc2ccc(O)cc2)C(=O)N[C@@H](C(C)C)C(=O)NCC(=O)N[C@@H](CC(=O)O)C(=O)N[C@@H](Cc2ccc(O)cc2)C(=O)N1)C(=O)N[C@@H](Cc1ccc(O)cc1)C(=O)NCC(=O)N[C@H](C(=O)N[C@@H](CS)C(N)=O)[C@@H](C)O` [Ce-2 P4V], the IC50 on D. immitis iPGM (Di iPGM Ave IC50 (M)) turned out to be 2.14e-09 M; against E. coli iPGM [3] it was 8.96 µM. The figures for the Kd at C. elegans iPGM [2], at B. malayi iPGM and on E. coli iPGM [4] (setting [7]) were 66.8 pM, 407 pM and 0.00729 µM, respectively. The koff at C. elegans iPGM [2] worked out at 1.15e-05 s⁻¹; on B. malayi iPGM, 7.52e-05 s⁻¹; on E. coli iPGM [4] (setting [6]), 0.000272 s⁻¹. Besides, the results for the kon at C. elegans iPGM [2], on B. malayi iPGM and at E. coli iPGM [4] (setting [6]) were 173000 M⁻¹ s⁻¹, 194000 M⁻¹ s⁻¹ and 37300 M⁻¹ s⁻¹, respectively.
In the case of `CC(C)C[C@H](NC(=O)[C@H](Cc1ccc(O)cc1)NC(=O)[C@@H]1CSCC(=O)N[C@H](Cc2ccc(O)cc2)C(=O)N[C@@H](CC(=O)O)C(=O)N[C@@H](Cc2ccc(O)cc2)C(=O)N2CCC[C@H]2C(=O)NCC(=O)N[C@@H](CC(=O)O)C(=O)N[C@@H](Cc2ccc(O)cc2)C(=O)N1)C(=O)N[C@@H](Cc1ccc(O)cc1)C(=O)NCC(=O)NCC(=O)N[C@@H](CS)C(N)=O` [Ce-2 T13G], the IC50 turned out to be 1.08e-09 M at D. immitis iPGM (Di iPGM Ave IC50 (M)), 9.2e-10 M against D. immitis iPGM (IC50 (M)) and 0.0994 µM at E. coli iPGM [3]. For the same molecule, the results for the dissociation constant Kd at C. elegans iPGM [2], at B. malayi iPGM and on E. coli iPGM [4] (setting [7]) were 43.3 pM, 49.3 pM and 0.0108 µM, respectively. In addition, the koff at C. elegans iPGM [2] amounted to 5.77e-05 s⁻¹; on B. malayi iPGM, 6.11e-05 s⁻¹; on E. coli iPGM [4] (setting [6]), 0.00133 s⁻¹. Moreover, the kon at C. elegans iPGM [2] was 1.32e+06 M⁻¹ s⁻¹; at B. malayi iPGM it was 1.19e+06 M⁻¹ s⁻¹; on E. coli iPGM [4] (setting [6]), 299000 M⁻¹ s⁻¹.

B1: iPGM (protein)
chain: MAEAKNRVCLVVIDGWGISNETKGNAILNAKTPVMDELCVMNSHPIQAHGLHVGLPEGLMGNSEVGHLNIGAGRVVYQDIVRINLAVKNKTLVENKHLKEAAERAIKGNGRMHLCGLVSDGGVHSHIDHLFALITALKQLKVPKLYIQFFGDGRDTSPTSGVGFLQQLIDFVNKEQYGEISTIVGRYYAMDRDKRWERIRVCYDALIGGVGEKTTIDKAIDVIKGRYAKDETDEFLKPIILSDEGRTKDGDTLIFFDYRADRMREITECMGMERYKDLNSNIKHPKNMQVIGMTQYKAEFTFPALFPPESHKNVLAEWLSVNGLTQFHCAETEKYAHVTFFFNGGVEKQFANEERCLVVSPKVATYDLEPPMSSAAVADKVIEQLHMKKHPFVMCNFAPPDMVGHTGVYEAAVKAVEATDIAIGRIYEACKKNDYILMVTADHGNAEKMMAPDGSKHTAHTCNLVPFTCSSMKYKFMDKLPDREMALCDVAPTVLKVMGVPLPSEMTGQPLVNEA
Take B1: the Kd in the data set with Ce-2 worked out at 500 pM; with Ce-2 Thr13Ser, 85 pM; in the data set with Ce-1 NHOH, 0.012 µM.

B2: iPGM (protein)
chain: MFVALGAQIYRQYFGRRGMAMANNSSVANKVCLIVIDGWGVSEDPYGNAILNAQTPVMDKLCSGNWAQIEAHGLHVGLPEGLMGNSEVGHLNIGAGRVIYQDIVRINLAVKNNKFVTNESLVDACDRAKNGNGRLHLAGLVSDGGVHSHIDHMFALVKAIKELGVPELYLHFYGDGRDTSPNSGVGFLEQTLEFLEKTTGYGKLATVVGRYYAMDRDNRWERINVAYEAMIGGVGETSDEAGVVEVVRKRYAADETDEFLKPIILQGEKGRVQNDDTIIFFDYRADRMREISAAMGMDRYKDCNSKLAHPSNLQVYGMTQYKAEFPFKSLFPPASNKNVLAEWLAEQKVSQFHCAETEKYAHVTFFFNGGLEKQFEGEERCLVPSPKVATYDLQPEMSAAGVADKMIEQLEAGTHPFIMCNFAPPDMVGHTGVYEAAVKACEATDIAIGRIYEATQKHGYSLMVTADHGNAEKMKAPDGGKHTAHTCYRVPLTLSHPGFKFVDPADRHPALCDVAPTVLAIMGLPQPAEMTGVSIVQKI
As to B2, the figures for the Kd in the data set with Ce-2, in the data set with Ce-2 Thr13Ser and with Ce-1 NHOH were 38 pM, 29 pM and 0.00011 µM, respectively.

B3: iPGM (protein)
chain: MLVSKKPMVLVILDGYGYREEQQDNAIFSAKTPVMDALWANRPHTLIDASGLEVGLPDRQMGNSEVGHVNLGAGRIVYQDLTRLDVEIKDRAFFANPVLTGAVDKAKNAGKAVHIMGLLSAGGVHSHEDHIMAMVELAAERGAEKIYLHAFLDGRDTPPRSAESSLKKFEEKFAALGKGRVASIIGRYYAMDRDNRWDRVEKAYDLLTLAQGEFQADTAVAGLQAAYARDENDEFVKATVIRAEGQPDAAMEDGDALIFMNFRADRAREITRAFVNADFDGFARKKVVNVDFVMLTEYAADIKTAVAYPPASLVNTFGEWMAKNDKTQLRISETEKYAHVTFFFNGGVEESFKGEDRILINSPKVATYDLQPEMSSAELTEKLVAAIKSGKYDTIICNYPNGDMVGHTGVMEAAVKAVEALDHCVEEVAKAVESVGGQLLITADHGNAEQMRDPATGQAHTAHTNLPVPLIYVGDKNVKAVEGGKLSDIAPTMLSLMGMEIPQEMTGKPLFIVE
B3: the results for the Kd with Ce-2, with Ce-2 Thr13Ser and in the data set with Ce-1 NHOH were 69000 pM, 1300 pM and 5 µM, respectively.

Broadly, the IC50 is the concentration at which inhibition is half-maximal. In general, Kd refers to the free concentration of one partner at which half of the binding sites on the other are occupied at equilibrium, for simple one-to-one binding. Read a low Kd as higher affinity. What is called koff is the first-order rate constant of dissociation. Higher therefore signals fast dissociation. Broadly, the kon is the rate constant with which the complex forms. A low value points to slow association. Usually t½ stands for the time needed for the level to fall by half in the phase considered. Low values mean fast loss, high ones slow loss.
